Measurements taken from US20250214983A1, “1,3,4-OXADIAZOLE TRIAZOLE COMPOUNDS AS HISTONE DEACETYLASE 6 INHIBITOR, AND PHARMACEUTICAL COMPOSITION COMPRISING THE SAME” (Chong Kun Dang Pharmaceutical Corp., priority 2022, published 2025).

Columns and labels:
human recombinant HDAC6 = molecular target: T1, human recombinant HDAC6 (Homo sapiens, UniProt Q9UBN7); assay: HDAC6 enzyme activity inhibition (HDAC Fluorimetric Drug Discovery Kit); type: biochemical; conditions: HDAC1 versus HDAC6
T1 construct: purchased Calbiochem Inc. 382180
T1 sequence (Q9UBN7 1-1215): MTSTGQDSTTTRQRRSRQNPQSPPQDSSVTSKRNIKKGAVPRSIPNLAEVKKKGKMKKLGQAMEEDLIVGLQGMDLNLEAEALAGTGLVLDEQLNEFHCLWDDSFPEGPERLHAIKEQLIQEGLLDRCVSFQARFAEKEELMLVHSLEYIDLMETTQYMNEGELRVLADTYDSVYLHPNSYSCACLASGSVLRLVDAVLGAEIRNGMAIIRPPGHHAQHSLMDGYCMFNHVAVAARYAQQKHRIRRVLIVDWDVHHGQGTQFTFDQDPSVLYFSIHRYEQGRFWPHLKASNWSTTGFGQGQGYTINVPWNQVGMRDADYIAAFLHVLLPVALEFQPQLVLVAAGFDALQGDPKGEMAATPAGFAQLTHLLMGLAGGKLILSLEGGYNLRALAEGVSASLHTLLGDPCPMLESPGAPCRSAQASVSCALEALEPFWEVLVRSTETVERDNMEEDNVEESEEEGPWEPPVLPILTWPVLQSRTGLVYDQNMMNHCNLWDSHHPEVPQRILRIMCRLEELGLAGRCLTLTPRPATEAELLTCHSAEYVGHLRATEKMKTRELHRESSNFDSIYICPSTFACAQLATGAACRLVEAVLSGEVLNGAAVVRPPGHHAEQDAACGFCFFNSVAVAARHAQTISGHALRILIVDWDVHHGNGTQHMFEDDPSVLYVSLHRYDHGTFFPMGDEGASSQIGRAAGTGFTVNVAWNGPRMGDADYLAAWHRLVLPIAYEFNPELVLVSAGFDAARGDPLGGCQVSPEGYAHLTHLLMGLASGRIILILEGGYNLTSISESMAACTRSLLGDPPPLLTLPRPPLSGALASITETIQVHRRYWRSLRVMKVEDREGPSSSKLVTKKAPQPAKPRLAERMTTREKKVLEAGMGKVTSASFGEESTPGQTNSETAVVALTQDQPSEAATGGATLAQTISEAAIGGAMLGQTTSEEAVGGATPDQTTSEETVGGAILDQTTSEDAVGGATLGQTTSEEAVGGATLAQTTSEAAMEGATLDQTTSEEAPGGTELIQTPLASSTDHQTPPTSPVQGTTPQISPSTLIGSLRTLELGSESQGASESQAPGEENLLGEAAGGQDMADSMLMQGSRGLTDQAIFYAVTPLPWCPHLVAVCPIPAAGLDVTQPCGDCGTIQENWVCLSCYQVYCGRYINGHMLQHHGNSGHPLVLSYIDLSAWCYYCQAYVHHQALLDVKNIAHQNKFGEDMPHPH
Experimental: (§1) An experiment was conducted to identify the selectivity of the 1,3,4-oxadiazole triazole compound of the present invention to HDAC6 through an experiment on HDAC1 and HDAC6 enzyme activity inhibition.
(§2) The HDAC enzyme activity was measured with HDAC Fluorimetric Drug Discovery Kit (BML-AK511, 516) of Enzo Life Science, Inc. For the test on the HDAC1 enzyme activity, human recombinant HDAC1 (BML-SE456) was used as an enzyme source and Fluor de Lys®-“SIRT1 (BNL-KI177)” was used as a substrate. A 5-fold dilution of the compound was divided into a 96-well plate, after which 0.3 μg of the enzyme and 10 μM of the substrate were inserted into each well and subjected to reaction at 30° C. for 60 minutes, such that Fluor de Lys® Developer II (BML-KI176) was inserted thereinto and subjected to reaction for 30 minutes and finished. After that, a fluorescence value (Ex 360, Em 460) was measured with a multi-plate reader (Flexstation 3, Molecular Device). An experiment on HDAC6 enzyme was conducted in accordance with the same protocol as in the HDAC1 enzyme activity test method by using human recombinant HDAC6 (382180) of Calbiochem Inc. For final result values, each IC50 value was calculated with GraphPad Prism 4.0 program.

human recombinant HDAC1 = molecular target: T2, human recombinant HDAC1 (Homo sapiens, UniProt Q13547); assay: HDAC1 enzyme activity inhibition (HDAC Fluorimetric Drug Discovery Kit); type: biochemical; conditions: human recombinant HDAC1, Fluor de Lys substrate 10 μM, 30° C. 60 minutes
T2 construct: purchased Enzo Life Science, Inc. BML-SE456
Experimental: as §1, §2

T2 sequence (Q13547 whole entry): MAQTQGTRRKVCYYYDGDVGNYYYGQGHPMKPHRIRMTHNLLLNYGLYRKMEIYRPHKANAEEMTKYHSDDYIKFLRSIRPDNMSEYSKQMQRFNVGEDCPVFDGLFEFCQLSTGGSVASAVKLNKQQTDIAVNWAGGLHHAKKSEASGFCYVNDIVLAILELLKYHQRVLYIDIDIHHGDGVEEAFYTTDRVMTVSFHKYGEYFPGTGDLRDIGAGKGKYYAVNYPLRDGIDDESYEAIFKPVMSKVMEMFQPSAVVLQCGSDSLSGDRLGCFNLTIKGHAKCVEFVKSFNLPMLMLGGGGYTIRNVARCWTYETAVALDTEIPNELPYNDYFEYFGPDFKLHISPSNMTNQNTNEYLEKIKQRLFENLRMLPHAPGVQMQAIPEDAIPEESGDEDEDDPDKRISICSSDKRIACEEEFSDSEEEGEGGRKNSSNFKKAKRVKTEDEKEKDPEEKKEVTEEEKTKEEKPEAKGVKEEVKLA

For Fc1c(CN2CCCCC2)cccc1-c1cn(Cc2ccc(-c3nnc(C(F)F)o3)cn2)nn1 [Compound 28, 2-(difluoromethyl)-5-(6-((4-(2-fluoro-3-(piperidin-1-ylmethyl)phenyl)-1H-1,2,3-triazol-1-yl)methyl)pyridin-3-yl)-1,3,4-oxadiazole], the “HDAC6 selectivity (fold)” value (human recombinant HDAC6) was 1440 fold and the IC50 (human recombinant HDAC1) was greater than 50 µM.

For CN(C)Cc1cc(Cl)cc(-c2cn(Cc3ccc(-c4nnc(C(F)F)o4)cn3)nn2)c1 [Compound 31, 1-(3-chloro-5-(1-((5-(5-(difluoromethyl)-1,3,4-oxadiazol-2-yl)pyridin-2-yl)methyl)-1H-1,2,3-triazol-4-yl)phenyl)-N,N-dimethylmethanamine], the “HDAC6 selectivity (fold)” value (human recombinant HDAC6) was 1424 fold and the IC50 (human recombinant HDAC1) was greater than 50 µM.

FC(F)c1nnc(-c2ccc(Cn3cc(-c4cc(Cl)cc(CN5CCCC5)c4)nn3)nc2)o1 [Compound 32, 2-(6-((4-(3-chloro-5-(pyrrolidin-1-ylmethyl)phenyl)-1H-1,2,3-triazol-1-yl)methyl)pyridin-3-yl)-5-(difluoromethyl)-1,3,4-oxadiazole] was tested, and the “HDAC6 selectivity (fold)” value (human recombinant HDAC6) was 1945 fold and the IC50 (human recombinant HDAC1) was greater than 50 µM.

CN(C)Cc1cccc(-c2cn(Cc3ccc(-c4nnc(C(F)F)o4)cn3)nn2)c1Cl [Compound 34, 1-(2-chloro-3-(1-((5-(5-(difluoromethyl)-1,3,4-oxadiazol-2-yl)pyridin-2-yl)methyl)-1H-1,2,3-triazol-4-yl)phenyl)-N,N-dimethylmethanamine] was tested, and the “HDAC6 selectivity (fold)” value (human recombinant HDAC6) was 1633 fold and the IC50 (human recombinant HDAC1) was greater than 50 µM.

With FC(F)c1nnc(-c2ccc(Cn3cc(-c4cccc(CN5CCC5)c4Cl)nn3)nc2)o1 [Compound 35, 2-(6-((4-(3-(azetidin-1-ylmethyl)-2-chlorophenyl)-1H-1,2,3-triazol-1-yl)methyl)pyridin-3-yl)-5-(difluoromethyl)-1,3,4-oxadiazole] the “HDAC6 selectivity (fold)” value (human recombinant HDAC6) was 1146 fold and the IC50 (human recombinant HDAC1) was greater than 50 µM.

For FC(F)c1nnc(-c2ccc(Cn3cc(-c4cccc(CN5CCCC5)c4Cl)nn3)nc2)o1 [Compound 36, 2-(6-((4-(2-chloro-3-(pyrrolidin-1-ylmethyl)phenyl)-1H-1,2,3-triazol-1-yl)methyl)pyridin-3-yl)-5-(difluoromethyl)-1,3,4-oxadiazole], the “HDAC6 selectivity (fold)” value (human recombinant HDAC6) was 1792 fold and the IC50 (human recombinant HDAC1) was greater than 50 µM.

For CC1CCN(Cc2cccc(-c3cn(Cc4ccc(-c5nnc(C(F)F)o5)cn4)nn3)c2Cl)CC1 [Compound 37, 2-(6-((4-(2-chloro-3-((4-methylpiperidin-1-yl)methyl)phenyl)-1H-1,2,3-triazol-1-yl)methyl)pyridin-3-yl)-5-(difluoromethyl)-1,3,4-oxadiazole], the “HDAC6 selectivity (fold)” value (human recombinant HDAC6) was 1160 fold and the IC50 (human recombinant HDAC1) was greater than 50 µM.

In the case of Fc1cc(CN2CCC2)cc(-c2cn(Cc3ccc(-c4nnc(C(F)F)o4)cn3)nn2)c1 [Compound 38, 2-(6-((4-(3-(azetidin-1-ylmethyl)-5-fluorophenyl)-1H-1,2,3-triazol-1-yl)methyl)pyridin-3-yl)-5-(difluoromethyl)-1,3,4-oxadiazole], the “HDAC6 selectivity (fold)” value (human recombinant HDAC6) is reported as 2777 fold and the IC50 (human recombinant HDAC1) is reported as greater than 50 µM.

Fc1cc(CN2CCCC2)cc(-c2cn(Cc3ccc(-c4nnc(C(F)F)o4)cn3)nn2)c1 [Compound 39, 2-(difluoromethyl)-5-(6-((4-(3-fluoro-5-(pyrrolidin-1-ylmethyl)phenyl)-1H-1,2,3-triazol-1-yl)methyl)pyridin-3-yl)-1,3,4-oxadiazole] was tested, and the “HDAC6 selectivity (fold)” value (human recombinant HDAC6) was 1773 fold and the IC50 (human recombinant HDAC1) was greater than 50 µM.

CN(C)Cc1ccc(-c2cn(Cc3ccc(-c4nnc(C(F)F)o4)cn3)nn2)cc1Cl [Compound 41, 1-(2-chloro-4-(1-((5-(5-(difluoromethyl)-1,3,4-oxadiazol-2-yl)pyridin-2-yl)methyl)-1H-1,2,3-triazol-4-yl)phenyl)-N,N-dimethylmethanamine] was tested, and the “HDAC6 selectivity (fold)” value (human recombinant HDAC6) was 2083 fold and the IC50 (human recombinant HDAC1) was greater than 50 µM.

In the case of FC(F)c1nnc(-c2ccc(Cn3cc(-c4ccc(CN5CCC5)c(Cl)c4)nn3)nc2)o1 [Compound 42, 2-(6-((4-(4-(azetidin-1-ylmethyl)-3-chlorophenyl)-1H-1,2,3-triazol-1-yl)methyl)pyridin-3-yl)-5-(difluoromethyl)-1,3,4-oxadiazole], the “HDAC6 selectivity (fold)” value (human recombinant HDAC6) is reported as 2183 fold and the IC50 (human recombinant HDAC1) is reported as greater than 50 µM.
